A short description of data set [1]: Plasma concentrations of DEX and unconjugated DOR (HPLC), model-independent pharmacokinetics. In kind it is in vivo, human. The note with it: for 24‐h plasma concentration: almost all subjects (except in 2 cases); for AUC / Cmax / Tmax: both sexes, human, oral. The source says:
(§1) The clinical trial has been performed according to the Declaration of Helsinki and was approved by the North Sheffield Research and Ethics Committee (approval number NS98/183). All participants enrolled into the clinical trial have given informed consent. Data were collected from twenty‐three healthy non‐smoker volunteers (12 male) aged 19‐51 years who took part in a double‐blind randomized placebo controlled cross‐over study. […] The exclusion criteria were respiratory tract infection or acute cough within the last 4 weeks, receiving any medication within previous 2 weeks, and any medical condition which may interfere with the study. Preceding the visit day, the volunteer was asked to fast for 8 h, abstain from alcohol, and abstain from caffeinated drinks throughout the study day. Written informed consent was obtained from all volunteers. The study was approved by the […] Research and Ethics Committee. Subjects' cough response to citric acid challenge test was studied on three separate occasions (separated at least 7 days apart) following administration of (i) placebo; (ii) 40.5 mg dextromethorphan hydrobromide; (iii) 44.6 mg of dextrorphan‐D‐tartrate. The order of treatments (placebo, DEX, and DOR) was randomized across participants using a balanced Latin square design to ensure equal distribution of sequence effects. Blood samples for PK analysis were taken periodically (at 0, 1, 2, 3, 4, 5, 6, 8, 10, 12, and 24 h post administration of DEX and DOR).
Plasma concentrations of DEX and unconjugated DOR were determined using high‐performance liquid chromatography with fluorometric detection according to the method of Chen et al.[25] The intra‐assay coefficient of variation for these analyses at a concentration of 2.5 ng/mL ranged from 6% to 13%. The lower limits of quantification were determined to be 0.3 ng/mL for DOR and 0.5 ng/mL for DEX.
(§2) The percent of change in cough number relative to the baseline (t = 0) was plotted against time and the maximum reduction in cough response (Emax) and its […] (TEmax) were determined. The area under the percent of reduction in cough number against time between 0 until 24 h (AUEC0‐24 h) was calculated using the trapezoidal rule. The correlation between AUEC0‐24 h and area under plasma concentration time between zero and 24 h (AUC0‐24 h) of DEX, (endogenously) formed DOR and directly administered DOR was statistically examined using Spearman rank correlation test. The Friedman test (followed by Dunn's multiple comparison) was used to compare the AUC values of DEX and DOR, as well as the AUEC values, between the different arms of the study.

The conditions of data set [2]: fixed in the model for DEX and directly administered (preformed) DOR, cited from earlier work.
Data set [3] relates to cough response to citric acid challenge. The data set is described as follows: Citric acid cough challenge test, model-independent analysis of antitussive effect. The class given is in vivo, human. The conditions noted are these: for Emax, maximum percentage of cough number reduction, mean: mean of 23 healthy volunteers, change relative to baseline; for Emax, maximum percentage of cough number reduction, mean / Emax, maximum percentage of cough number reduction, median: after 40.5 mg dextromethorphan hydrobromide or 44.6 mg dextrorphan-D-tartrate; for AUEC0‐24 h, mean / AUEC0‐24 h, median: area under percent reduction in cough number vs time 0-24 h; for AUEC0‐24 h, mean / TEmax, time of maximum percentage of reduction in cough number, mean / AUEC0‐24 h, median / TEmax, time of maximum percentage of reduction in cough number, median: healthy volunteers; for TEmax, time of maximum percentage of reduction in cough number, mean / TEmax, time of maximum percentage of reduction in cough number, median: after DEX or DOR administration; for Emax, maximum percentage of cough number reduction, median: median of 23 healthy volunteers; for Emax and TEmax compared between DEX, DOR and placebo arms: model-independent analysis; for Antitussive effect (AUEC0‐24 h) compared between DEX, DOR and placebo arms: model-independent pairwise analysis, Friedman test with Dunn's multiple comparison.
Excerpt: as §1
Details of the cough challenge test were described previously.[24] In summary, cough was produced by five inhalations of 3 mL 10% w/v citric acid (placed in a nebulizing chamber) over 5 min. Prior to randomization, all volunteers underwent a two‐part screening process. Volunteers who coughed between 7 and 14 times following five inhalations of a 10% citric acid solution at the first visit, were considered eligible for further screening. The second visit evaluated both interday and intraday cough response consistency. The acceptable level of variability in cough frequency was established as no more than 20% between separate days and within a single day across three separate measurements. The frequency of cough response was measured at baseline (prior to placebo or drug administration, t = −1 h) and at regular intervals up to 24 h. Cough measurements were obtained at the same time points as blood sampling.
as §2

For data set [4] the following is noted: cited from earlier work.
Data set [5] concerns antitussive effect (cough). Also noted: method as in PMID 12848776. The note with it: cited from earlier work.
For data set [6] the following is noted: animal study; cited from earlier work.
Where [7] appears, read: plasma, mean, plasma, the administered compound itself (40.5 mg DEX HBr or 44.6 mg DOR-D-tartrate), unconjugated DOR, read-out: AUC0‐24 h, mean.
Where [8] appears, read: plasma, mean, plasma, the administered compound itself (40.5 mg DEX HBr or 44.6 mg DOR-D-tartrate), unconjugated DOR, read-out: Cmax, mean.
Where [9] appears, read: plasma, mean, plasma, the administered compound itself (40.5 mg DEX HBr or 44.6 mg DOR-D-tartrate), unconjugated DOR, read-out: Tmax, mean.
Setting [10] is: plasma, median, plasma, the administered compound itself, read-out: AUC0‐24 h, median.
[11] abbreviates: plasma, median, plasma, the administered compound itself, read-out: Tmax, median.

Results on two molecules are retold here after PMC12555100, “Dextromethorphan Versus Dextrorphan: A Quantitative Comparison of Antitussive Potency Following Separate Administration of Metabolite” (Journal of Clinical Pharmacology, 2025).

Structures are written as SMILES. Converted amounts (≈) assume the structure as drawn. “And” between values parts separate entries of the source, which are not always exact repeats. Equal entries are not always repeated. “Also recorded” adds a separate entry of the source. Where two headings read alike, the source gives them in different places. A value given as a limit tells only on which side of the number the result lay.

By Cmax is commonly meant the highest concentration seen after dosing. For orientation: Tmax means the time from dosing to the highest level. Broadly, the IC50 is the point on the concentration scale where inhibition reaches its midpoint.

For the molecule `COc1ccc2c(c1)[C@]13CCCC[C@@H]1[C@H](C2)N(C)CC3` [DEX, dextromethorphan], the “24‐h plasma concentration” value in data set [1] is “below the limit of quantitation”. For the same molecule, the AUC in data set [1] (setting [7]) was determined as 26.7 ng·h/mL. Besides, in data set [1] (setting [8]), the Cmax amounted to 3.5 ng/mL. The Tmax in data set [1] (setting [9]) came out at 1.8 h. Besides, the AUC in data set [1] (setting [10]) was found to be 16.7 ng·h/mL. Moreover, in data set [1] (setting [11]), the Tmax was found to be 1 h. Moreover, the “Cmax, median” value in data set [1] (median, plasma, the administered compound itself) is reported as 2.2 ng/mL. In addition, the “ka, first-order absorption rate constant (fixed)” value (“ka … (fixed)” below) in data set [2] is 2.6 h^−1 and 2.6 (fixed) h^−1. For the same molecule, in data set [3], the “Emax, maximum percentage of cough number reduction, mean” value is listed as −46%; the “AUEC0‐24 h, mean” value is −299 %hr; the “TEmax, time of maximum percentage of reduction in cough number, mean” value is listed as 3.9 h; the “Emax, maximum percentage of cough number reduction, median” value is −44%. In addition, in data set [3], the “AUEC0‐24 h, median” value is on record as −286 %hr; the “TEmax, time of maximum percentage of reduction in cough number, median” value is 3.0 h; the “Emax and TEmax compared between DEX, DOR and placebo arms” value is given as “no significant differences”; the “Antitussive effect (AUEC0‐24 h) compared between DEX, DOR and placebo arms” value is listed as “no significant difference”.

Turning to `CN1CC[C@@]23CCCC[C@@H]2[C@@H]1Cc1ccc(O)cc13` [DOR, dextrorphan], in data set [1] (Friedman and Dunn's tests), the “Cmax and Tmax of formed DOR compared with direct administration of DOR” value is on record as “not statistically different”. Further, the “AUC0−24 h of formed DOR (from DEX metabolism) compared with direct administration of DOR” value in data set [1] (Friedman and Dunn's tests, P‐value = .003, higher molar dose of DOR than of DEX) is on record as “significantly higher”. Moreover, in data set [1], the “24‐h plasma concentration” value is on record as “below the limit of quantitation”. Moreover, in data set [1] (setting [7]), the AUC was 17.4 ng·h/mL. Besides, in data set [1] (setting [8]), the Cmax came out at 4.1 ng/mL. Further, the Tmax in data set [1] (setting [9]) stood at 1.1 h. The AUC in data set [1] (setting [10]) was 18.9 ng·h/mL. Also, in data set [1] (plasma, median, plasma, the administered compound itself, read-out: Cmax, median), the Cmax stood at 3.8 ng/mL. In addition, the Tmax in data set [1] (setting [11]) was determined as 1 h. The “Plasma concentration of DOR relative to DEX after administration of DEX” value in data set [1] (majority of measurement times) is “up to twofold higher”. The Water solubility in data set [4] was more than 10000 µg/mL. Besides, the “ka … (fixed)” value in data set [2] is given as 2.6 (fixed) h^−1. The “ka … (fixed)” value in data set [2] (listed as preformed DOR) was 2.6 h⁻¹. Moreover, the “Relative potency of DOR compared to DEX” value in data set [5] (modelling of quinidine interaction study, no separate DOR arm) is recorded as 38%. Further, the IC50 in data set [5] (total concentration of DOR (conjugated with glucuronic acid and unconjugated)) was 3.2 ng/mL (≈ 0.0124 µM). Also, in data set [6], the Antitussive activity result is “good antitussive activity comparable to that of DEX”, the “Tolerability compared with DEX” value is on record as “better tolerability” and the “Toxicity compared with DEX” value is listed as “lower toxicity”. In data set [3], the “Emax, maximum percentage of cough number reduction, mean” value is −45%; the “AUEC0‐24 h, mean” value is recorded as −189 %hr; the “TEmax, time of maximum percentage of reduction in cough number, mean” value is on record as 6.3 h; the “Emax, maximum percentage of cough number reduction, median” value was −46%. Moreover, in data set [3], the “AUEC0‐24 h, median” value is given as −170 %hr; the “TEmax, time of maximum percentage of reduction in cough number, median” value is 5.5 h; the “Emax and TEmax compared between DEX, DOR and placebo arms” value was “no significant differences”; the “Antitussive effect (AUEC0‐24 h) compared between DEX, DOR and placebo arms” value is listed as “no significant difference; also recorded: did not reveal a statistically significant difference; also recorded: failed to show any statistical difference”.
